Data on three molecules can be found in paper PMC7589326, “Synthesis and Pharmacological Evaluation of Fluorinated Quinoxaline‐Based κ‐Opioid Receptor (KOR) Agonists Designed for PET Studies” (Chemmedchem, 2020).

A word on the logD: it is lipophilicity at a set pH, counting ionised and neutral species. High values mean a more lipophilic compound, low ones a more hydrophilic compound.

In data set [1] the target is T1, KOR (Homo sapiens, UniProt P41145). The arrangement: expressed in transfected cells; host or cells: HEK 293T (ATCC CRL-11268); method as in PMID 30543421. The note with it: human HEK 293T cells; refers to U-50,488 (100 %); cited from earlier work.
Target sequence in this assay (P41145 whole entry): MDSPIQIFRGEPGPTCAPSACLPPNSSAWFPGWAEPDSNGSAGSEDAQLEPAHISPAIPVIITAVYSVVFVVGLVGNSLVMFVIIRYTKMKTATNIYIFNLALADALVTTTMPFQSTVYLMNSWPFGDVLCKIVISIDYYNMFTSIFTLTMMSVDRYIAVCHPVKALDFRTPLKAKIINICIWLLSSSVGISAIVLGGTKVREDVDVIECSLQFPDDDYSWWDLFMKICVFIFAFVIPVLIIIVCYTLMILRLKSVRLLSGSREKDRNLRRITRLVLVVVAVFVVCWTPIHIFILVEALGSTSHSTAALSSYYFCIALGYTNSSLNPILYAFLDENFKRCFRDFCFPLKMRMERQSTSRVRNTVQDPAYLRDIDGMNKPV
For the next data set, the system named is MOG induced EAE. The note with it: mouse, in vivo; cited from earlier work.
Data set [2] concerns the target T1, KOR. The arrangement: expressed in transfected cells; host or cells: HTLA cells (stably expressing TEV-fused β-arrestin2); method as in PMID 30543421. Conditions: human HTLA cells; refers to U-50,488 (100 %); cited from earlier work.
Target sequence in this assay (P41145 whole entry): as above
Target sequence in this assay (P32121 whole entry partner): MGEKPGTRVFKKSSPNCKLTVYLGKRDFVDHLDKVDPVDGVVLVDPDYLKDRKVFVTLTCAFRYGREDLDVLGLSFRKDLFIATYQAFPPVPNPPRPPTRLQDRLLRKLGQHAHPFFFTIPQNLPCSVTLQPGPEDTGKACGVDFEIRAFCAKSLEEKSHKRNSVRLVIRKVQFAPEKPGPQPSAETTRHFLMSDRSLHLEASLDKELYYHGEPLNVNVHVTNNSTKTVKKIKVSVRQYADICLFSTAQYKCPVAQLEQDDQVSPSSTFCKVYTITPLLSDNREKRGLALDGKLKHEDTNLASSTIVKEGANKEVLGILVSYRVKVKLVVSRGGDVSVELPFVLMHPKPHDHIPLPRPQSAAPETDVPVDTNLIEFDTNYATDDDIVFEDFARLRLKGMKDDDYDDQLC
Data set [3] in a line: Stability in human serum (radio-HPLC). Type of data set: in vitro ADME. Conditions: 90 min, 37 °C. Here is the method: (§1) Enzymes present in blood serum could be able to transform the radioactive PET tracer [^18F]‐2. Therefore, the blood serum stability of [^18F]‐2 was investigated before testing the tracer in vivo. [^18F]‐2 was incubated with mouse and human serum for 90 min at 37 °C.
(§2) The serum stability of radioligands [^18F]‐2 and [^18F]‐14c was evaluated by incubation in mouse or human serum at 37 °C for up to 90 min. An aliquot of formulated [^18F]‐2 or [^18F]‐14c (20 μL, ca. 6.6 MBq and ca.10 MBq, respectively) was added to a sample of mouse serum (200 μL) or human serum (200 μL), and the mixtures were incubated at 37 °C. Samples of 20 μL each were taken after periods of 10, 30, 60 and 90 min and ice‐cold DNA‐grade CH3CN (100 μL) were added. After centrifugation for ≥5 min, the supernatant was analyzed by analytical radio‐HPLC B, method B.

Data set [4] can be described thus: Biostability and biotransformation in mice in vivo (radio-HPLC of pooled blood). Also noted: species or system mouse. Conditions: pooled blood of three mice, 90 min after injection. The method, then: In order to investigate the in vivo biotransformation of [^18F]‐2, the blood of three mice 90 min after injection of [^18F]‐2 was pooled and analyzed.
Approximately 72 MBq of [^18F]‐2 (in a volume of 100 μL) were injected into the tail vein of each of three 11‐week‐old C57/BL6 mice. The animals were sacrificed 90 min after injection. Whole blood of the three mice was pooled (∼2 mL) and centrifuged (3 min) to isolate plasma. Plasma (∼0.7 mL) was separated and mixed with ice‐cold CH3CN (1.4 mL). After further centrifugation for 5 min, the supernatant was separated and evaporated to dryness in vacuo at moderate temperatures (≤60 °C). The residue was dissolved in water for injection (20 μL) and the solution was analyzed by analytical radio‐HPLC B, method B.

Data set [5] is described as follows: Distribution coefficient logD7.4, shake flask method with radioligand. It is filed as physicochemical. The note with it: n-octanol / phosphate buffered saline pH 7.4. The method, then: The distribution coefficient at pH 7.4 (logD7.4) was determined by a shake flask method using the radioligand [^18F]‐2. After distribution of [^18F]‐2 between n‐octanol and phosphate buffered saline (pH 7.4) layers, the radioactivity in both layers was determined and set in ratio. According to this procedure, a logD7.4 value of 1.37±0.06 was determined indicating a moderate lipophilic compound, which should be able to penetrate into the central nervous system.
The lipophilicity of radioligands [^18F]‐2 and [^18F]‐14c was assessed by determination of the water n‐octan‐1‐ol distribution coefficient (logD) following a published procedure.57 In brief, approximately 3.2 MBq of radioligand [^18F]‐2 and approximately 0.3 MBq of radiotracer [^18F]‐14c, respectively, were mixed with equal amounts (0.6 mL) of phosphate buffered saline (PBS, pH 7.4) and n‐octan‐1‐ol. The resulting biphasic system was mixed vigorously for 3 min at room temperature and subsequently, the tubes were centrifuged (≥5 min). Then 400 μL of the n‐octan‐1‐ol layer was separated and 400 μL of PBS were added. The mixture was mixed vigorously for 10 min at room temperature followed by centrifugation of the tubes for≥5 min. Two samples of 100 μL of each layer were counted in a γ‐counter (2480 Automatic Gamma Counter Wizard^2, Perkin‐Elmer). The distribution coefficient was determined by calculating the ratio cpm(n‐octan‐1‐ol)/cpm(PBS) and expressed as logD 7.4 (log(cpmn‐octanol/cpmPBS)). Three independent experiments were performed in duplicate and data were provided as mean values ±standard deviation.

The nature of data set [6]: In vivo biodistribution, small animal PET in C57BL/6 mice. The note with it: C57BL/6 mice, intravenous injection. The arrangement: species or system mouse. Here is the method:
Next, the distribution of the PET tracer [^18F]‐2 in mice was investigated. For this purpose, [^18F]‐2 was injected into 15‐week‐old C57BL/6 mice. […] Already after 2 min the radioactivity was almost completely found in liver, kidneys and bladder. In the liver, the radioactivity remained almost constant over the period of 90 min (Figure 6). Besides a transient local increase in radioactivity in the submandibular and harderian glands, no significant accumulation of [^18F]‐2 in non‐excreting organs such as heart, lung and muscles as indicator for unspecific binding could be detected.
Adult C57BL/6 mice (n=2 male, 15 weeks, 28 g for [^18F]‐2; n=2, male, 10 weeks, 25 g for [^18F]‐14c) were anesthetized by isoflurane/O2 and one lateral tail vein was cannulated BY using a 27 G needle connected to 15 cm polyethylene catheter tubing. Radiotracers (∼500 kBq/g bodyweight, 15 MBq) were injected as a bolus (50 μL compound flushed with 100 μL saline) via the tail vein and subsequent PET scanning was performed.
Small Animal PET Scanning. PET experiments were carried out using a submillimeter high resolution (0.7 mm full width at half‐maximum) small animal scanner (32 module quadHIDAC, Oxford Positron Systems Ltd., Oxford, UK) with uniform spatial resolution (<1 mm) over a large cylindrical field (165 mm diameter, 280 mm axial length). List‐mode data were acquired for 90 min and reconstructed into dynamic time frames using an iterative reconstruction algorithm. Subsequently, the scanning bed was transferred to the computed tomography (CT) scanner (Inveon, Siemens Medical Solutions, U.S.), and a CT acquisition with a spatial resolution of 80 μm was performed for each mouse. Reconstructed image data sets were coregistered based on extrinsic markers attached to the multimodal scanning bed and the in‐house developed image analysis software MEDgical. Three‐dimensional volumes of interest (VOIs) were defined over the respective organs in CT data sets, transferred to the coregistered PET data, and analyzed quantitatively. Regional uptake was calculated as percentage of injected dose by dividing counts per milliliter in the VOI by total counts in the mouse multiplied by 100 (%ID/mL).

A short description of data set [7]: Stability in mouse serum (radio-HPLC). It is filed as in vitro ADME. The note with it: 90 min, 37 °C. The method, then: as §1, §2
Data set [8] in a line: In vitro biotransformation with mouse liver microsomes and NADPH (LC-MS/MS). Conditions: mouse liver microsomes, NADPH, 90 min. (Liver microsomes are a subcellular fraction often used to study metabolism.)

Entries after “also recorded” stand apart in the source; their conditions may differ.

For `O=C(Cc1ccc(Cl)c(Cl)c1)N1CCN(Cc2cn(CCF)nn2)C2CCCC(N3CCCC3)C21` (centres unmarked) [compound 2], the “cAMP E max” value on KOR [1] is given as 103%. The “protection from MS-like symptoms / disease severity in EAE” value in the data set with MOG induced EAE was “significantly decreased diseases severity and delayed disease onset; also recorded: almost complete protection”. Also, the “β-Arrestin-2 E max” value on KOR [2] is given as 86%.

`O=C(Cc1ccc(Cl)c(Cl)c1)N1CCN(Cc2cn(CC[18F])nn2)[C@H]2CCC[C@H](N3CCCC3)[C@H]21` [[^18F]‐2, 2‐(3,4‐Dichlorophenyl)‐1‐((4aR,8R,8aS)‐ and ((4aS,8S,8aR)‐ 4‐{[1‐(2‐[^18F]fluoroethyl)‐1H‐1,2,3‐triazol‐4‐yl]methyl}‐8‐ (pyrrolidin‐1‐yl)‐3,4,4 a,5,6,7,8,8 a‐octahydroquinoxalin‐ 1(2H)‐yl)ethan‐1‐one]: the “stability in human serum” value in data set [3] is “high stability”. Moreover, in data set [4], the “intact PET tracer in blood” value is reported as 90%. The logD in [5] was found to be 1.37 ± 0.06. Also, the “radioactivity in the bones / defluorination” value in data set [6] is reported as “increased radioactivity in the bones was not observed”. Moreover, the “enrichment of radioactivity in brain or spinal cord (PET images)” value in [6] (90 min observation) is given as “do not show any enrichment of radioactivity in the brain or spinal cord”. For the same molecule, the “clearance from the body” value in data set [6] (hepatic and renal pathways) is “very fast and efficient clearance”. Also, the “stability in mouse serum” value in data set [7] is “high stability”.

As for `O=C(Cc1ccc(Cl)c(Cl)c1)N1CCNC2CCCC(N3CCC(F)C3)C21` (centres unmarked) [14c‐5], in data set [8], the “amount of metabolite formed from 14c” value was “minor amounts”.
